Like-named read-outs stand apart in the source and are kept apart here.
Experiments:
[1] = human, in vivo, po, 240 mg
[2] = biological target: androgen receptor (AR) (Homo sapiens, UniProt P10275); settings: cited from earlier work
[3] = Single oral administration of 14C-labeled apalutamide 240 mg (metabolite profile, excretion)
[4] = system: CYP1A2 and CYP2D6; assay: In vitro effect on CYP1A2 and CYP2D6; settings: therapeutically relevant concentrations
[5] = system: CYP2B6 and CYP2C8; assay: In vitro CYP inhibition: CYP2B6 and CYP2C8
[6] = system: organic cation transporter 2 (OCT2), organic anion transporter 3 (OAT3) and multidrug and toxin extrusions (MATEs); assay: In vitro transporter inhibition: OCT2, OAT3, MATEs; format: in vitro ADME
[7] = biological target: T1, organic anion transporter 1 (OAT1) (Homo sapiens, UniProt Q4U2R8); assay: In vitro transporter inhibition: OAT1
T1 sequence (Q4U2R8 1-563): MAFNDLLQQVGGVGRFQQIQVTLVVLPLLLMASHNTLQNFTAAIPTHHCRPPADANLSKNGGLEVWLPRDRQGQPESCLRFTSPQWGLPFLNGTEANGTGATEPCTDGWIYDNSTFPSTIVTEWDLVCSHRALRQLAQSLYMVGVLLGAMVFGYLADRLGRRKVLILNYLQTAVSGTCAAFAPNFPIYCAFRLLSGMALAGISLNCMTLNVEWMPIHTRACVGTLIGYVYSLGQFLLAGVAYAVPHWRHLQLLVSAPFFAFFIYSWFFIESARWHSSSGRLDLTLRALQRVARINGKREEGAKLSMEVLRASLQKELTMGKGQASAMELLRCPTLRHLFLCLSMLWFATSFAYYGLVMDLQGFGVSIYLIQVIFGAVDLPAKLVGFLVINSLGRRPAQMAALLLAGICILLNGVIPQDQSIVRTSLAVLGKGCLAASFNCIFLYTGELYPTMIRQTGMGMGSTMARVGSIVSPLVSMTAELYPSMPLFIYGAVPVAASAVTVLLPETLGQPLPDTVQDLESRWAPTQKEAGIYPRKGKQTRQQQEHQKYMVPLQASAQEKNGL

[8] = Preclinical pharmacokinetic profile; format: in vivo; settings: relative to apalutamide
[9] = biological target: P-gp (Homo sapiens, UniProt P08183); assay: In vitro transporter substrate assessment: P-gp
[10] = system: plasma proteins; assay: Plasma protein binding; settings: no concentration dependency
[11] = system: CYP2C9, CYP2C19, and CYP3A4; assay: In vitro CYP inhibition: CYP2C9, CYP2C19, CYP3A4
[12] = system: BCRP, OATP1B1, and OATP1B3; assay: In vitro transporter substrate assessment: BCRP, OATP1B1, OATP1B3
[13] = system: human CYP2B6 and CYP3A4; assay: CYP induction in vitro (hepatocytes)
[14] = human, in vivo
[15] = listed as N-desmethyl metabolite

P-gp, sequence (P08183 whole entry): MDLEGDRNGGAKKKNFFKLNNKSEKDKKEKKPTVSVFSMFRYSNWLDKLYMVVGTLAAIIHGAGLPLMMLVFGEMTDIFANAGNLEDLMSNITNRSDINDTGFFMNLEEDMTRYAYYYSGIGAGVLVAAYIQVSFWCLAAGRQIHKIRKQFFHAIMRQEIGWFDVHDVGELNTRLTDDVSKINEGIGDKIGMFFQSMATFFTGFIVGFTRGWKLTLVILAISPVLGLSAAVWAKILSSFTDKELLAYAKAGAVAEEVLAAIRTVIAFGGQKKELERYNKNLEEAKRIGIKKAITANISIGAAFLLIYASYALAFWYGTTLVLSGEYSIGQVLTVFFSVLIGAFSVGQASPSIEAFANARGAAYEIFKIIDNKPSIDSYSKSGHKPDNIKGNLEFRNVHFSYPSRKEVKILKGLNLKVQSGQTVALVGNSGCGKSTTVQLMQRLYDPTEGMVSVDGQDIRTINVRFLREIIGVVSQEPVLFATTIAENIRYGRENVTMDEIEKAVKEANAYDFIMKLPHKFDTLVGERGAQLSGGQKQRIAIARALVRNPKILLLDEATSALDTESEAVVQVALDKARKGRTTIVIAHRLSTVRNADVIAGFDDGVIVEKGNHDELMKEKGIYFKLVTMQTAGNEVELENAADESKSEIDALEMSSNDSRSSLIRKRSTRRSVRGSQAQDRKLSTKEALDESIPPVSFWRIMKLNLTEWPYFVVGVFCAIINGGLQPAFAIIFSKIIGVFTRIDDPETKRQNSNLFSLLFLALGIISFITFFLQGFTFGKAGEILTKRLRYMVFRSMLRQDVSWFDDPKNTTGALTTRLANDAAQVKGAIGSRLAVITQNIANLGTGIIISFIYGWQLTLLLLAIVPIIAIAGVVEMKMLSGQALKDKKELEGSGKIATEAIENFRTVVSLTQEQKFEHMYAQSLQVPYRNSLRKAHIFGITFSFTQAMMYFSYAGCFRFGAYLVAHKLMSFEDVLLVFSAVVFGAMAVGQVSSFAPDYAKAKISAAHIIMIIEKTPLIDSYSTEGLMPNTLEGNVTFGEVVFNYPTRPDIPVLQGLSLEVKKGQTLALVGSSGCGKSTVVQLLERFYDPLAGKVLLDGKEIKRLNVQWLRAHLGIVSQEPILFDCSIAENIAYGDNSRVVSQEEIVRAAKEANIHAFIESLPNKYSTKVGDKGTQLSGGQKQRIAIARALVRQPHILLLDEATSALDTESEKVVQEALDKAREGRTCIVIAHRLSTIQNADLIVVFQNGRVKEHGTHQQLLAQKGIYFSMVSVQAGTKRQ
androgen receptor (AR), sequence (P10275 whole entry): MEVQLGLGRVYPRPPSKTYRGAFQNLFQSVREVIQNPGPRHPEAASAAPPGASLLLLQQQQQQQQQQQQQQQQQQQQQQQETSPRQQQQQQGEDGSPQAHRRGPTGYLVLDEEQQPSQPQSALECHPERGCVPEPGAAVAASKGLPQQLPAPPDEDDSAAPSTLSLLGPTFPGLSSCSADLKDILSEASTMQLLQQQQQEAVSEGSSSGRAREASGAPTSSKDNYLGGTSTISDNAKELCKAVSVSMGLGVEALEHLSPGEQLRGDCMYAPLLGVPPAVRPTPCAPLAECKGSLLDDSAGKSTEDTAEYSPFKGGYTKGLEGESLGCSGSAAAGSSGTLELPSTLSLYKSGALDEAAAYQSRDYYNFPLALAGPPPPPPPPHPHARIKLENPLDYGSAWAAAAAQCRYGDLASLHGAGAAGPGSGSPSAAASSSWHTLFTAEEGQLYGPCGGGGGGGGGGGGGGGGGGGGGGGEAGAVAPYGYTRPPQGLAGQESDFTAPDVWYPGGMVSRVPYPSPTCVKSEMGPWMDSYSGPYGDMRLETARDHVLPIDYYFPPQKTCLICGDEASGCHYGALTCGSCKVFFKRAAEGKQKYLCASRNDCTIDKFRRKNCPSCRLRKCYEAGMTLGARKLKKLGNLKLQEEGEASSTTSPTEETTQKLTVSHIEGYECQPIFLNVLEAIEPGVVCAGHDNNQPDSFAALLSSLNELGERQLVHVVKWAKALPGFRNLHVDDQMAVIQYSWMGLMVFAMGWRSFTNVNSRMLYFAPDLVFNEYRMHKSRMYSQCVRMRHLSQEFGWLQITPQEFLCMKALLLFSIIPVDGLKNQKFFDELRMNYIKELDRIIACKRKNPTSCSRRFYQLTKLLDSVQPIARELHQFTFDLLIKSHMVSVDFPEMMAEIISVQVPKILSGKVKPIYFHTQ

N#Cc1ncc(N2C(=O)C3(CCC3)N(c3ccc(C(=O)O)c(F)c3)C2=S)cc1C(F)(F)F [inactive carboxylic acid metabolite]
share of the total 14C-AUC in plasma [1]: 3%

CC(O)c1cc(C(=O)N[C@@H](C)Cn2ccc(-c3ccc(C#N)c(Cl)c3)n2)[nH]n1 (some centres unmarked) [Darolutamide]
binding affinity to AR [2]: high affinity

N-desmethyl apalutamide
share of the total 14C-AUC in plasma ([3]; single oral 240 mg): 44%
% of dose in feces as this compound ([3]; up to 70 days): 2%
% of dose in urine as this compound ([3]; up to 70 days): 2.7%
effect on CYP1A2 and CYP2D6 [4]: do not affect
inhibition of CYP2B6 and CYP2C8 [5]: moderate inhibitors
inhibition of OCT2, OAT3 and MATEs [6]: inhibit
inhibition of OCT2, OAT3 and MATEs [6, 15]: cannot be excluded
inhibition of OAT1 [7]: do not inhibit
inhibition of OAT1 [7, 15]: No in vitro inhibition
elimination half-life [8]: longer elimination half-life than apalutamide
substrate for P-gp [9]: substrates for P-gp
bound to plasma proteins [10]: 95%
inhibition of CYP2C9, CYP2C19, and CYP3A4 [11]: weak inhibitors
substrate for BCRP, OATP1B1, and OATP1B3 [12]: not BCRP, OATP1B1, and OATP1B3
induction of human CYP2B6 and CYP3A4 in hepatocytes ([13]; concentrations up to 30 μM): inducers
CYP3A4 and CYP2B6 induction ([13]; in vitro studies): moderate to strong CYP3A4 and CYP2B6 inducers
AUC at steady-state, mean [14]: 124 µg·h/mL
Cmax at steady-state, mean [14]: 5900 ng/mL
differences in pharmacokinetics in specific populations [14]: No clinically significant differences
AUC at steady-state, mean ([14]; 240 mg): 124 µg·h/mL
Cmax at steady-state, mean ([14]; 240 mg): 5900 ng/mL
